One assay concerns the target T1, human GPR119 receptor (Homo sapiens, UniProt Q8TDV5, S329A/T327A).
T1 construct: N-terminal leader […]; expressed in transfected cells
T1 sequence (Q8TDV5 with tags, fused parts or gaps T327A/S329A): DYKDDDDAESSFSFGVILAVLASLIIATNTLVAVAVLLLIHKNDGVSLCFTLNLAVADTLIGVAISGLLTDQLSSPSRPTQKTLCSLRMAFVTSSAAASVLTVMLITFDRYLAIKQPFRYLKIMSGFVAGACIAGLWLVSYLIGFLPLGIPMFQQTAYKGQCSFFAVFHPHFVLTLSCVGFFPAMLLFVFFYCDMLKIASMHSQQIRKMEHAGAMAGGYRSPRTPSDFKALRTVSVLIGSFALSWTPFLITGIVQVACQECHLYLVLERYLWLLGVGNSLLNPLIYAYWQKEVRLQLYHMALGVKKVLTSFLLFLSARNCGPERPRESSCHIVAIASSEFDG
As to the kind of experiment: cAMP assay (LANCE cAMP-384) in HEK293 cells stably expressing mutant human GPR119 receptor. It counts as cell-based. The essentials:
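Agonist EC50 came from nonlinear regression over 12 concentrations (30 μM–100 pM), with % stimulation at 10 μM where no EC50 was obtained. Cells: stable HEK293 with mutant human GPR119 (T327A/S329A), 20 min compound at 37° C; cAMP read by LANCE kit with standard curve.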
Background: Changes in cAMP serve as a functional read-out for many G protein-coupled receptors.

The test system of a further assay is male ZDF rats. As to the kind of experiment: In vivo OGTT (oral glucose tolerance test) in Sprague Dawley or Zucker Diabetic Fatty rats. Further details: species or system rat. The note with it: nine week old male ZDF rats, 30 mg/kg p.o. 30 minutes prior to glucose bolus, 2 hrs post glucose bolus. The protocol:
Nine to 13 week old Male Sprague Dawley rats weighing 250 g-350 g or 9 week old male Zucker Diabetic Fatty rats weighing 300 g-450 g were fasted overnight for 16 hours. At time zero, blood was collected using the tail-nick method and glucose was measured with a glucometer (Bayer HealthCare) Animals then immediately received either vehicle (80% Labrasol, Gattefossé, France) or 3, 10, or 30 mg/kg GPR119 agonist (p.o., volume 2 mL/kg). Thirty minutes later blood glucose was again measured preceding the administration of a glucose bolus (p.o. 2 g/kg, volume 6 mL/kg). Blood glucose was then determined at 10, 20, 30, 60, 90, 120, and 180 minutes post glucose bolus or 20, 40, 60, 80, 100, and 120 minutes past glucose bolus.
Nine week old male ZDF rats were dosed with either 30 mg/kg of Compound 2-35 or 30 mg/kg of Compound 8-1 30 minutes prior to administration of the glucose bolus.

The mark [1] stands for this setting: cAMP accumulation, HEK293 cells stably expressing mutant human GPR119, read-out: EC50.
Where [2] appears, read: the 43rd table, compounds 75-1 to 75-38, read-out: EC50.
The mark [3] stands for this setting: the 41st table, compounds 73-1, 73-2, unit inferred, read-out: EC50.

The values that follow come from patent US8293729B2 (Boehringer Ingelheim International GmbH, priority 2009, dated 2012).

pEC50: −log10 of the molar value. Where two headings read alike, the source gives them in different places.

`CNC(=O)c1cc(F)c(N2CCC(=NOC3CCN(C(=O)OC(C)C)CC3)CC2)cc1F` [Example 2-35]: the pEC50 – broadly, −log10 of the EC50, conventionally taken in molar units – at human GPR119 receptor (EC50, cAMP accumulation, HEK293 cells stably expressing mutant human GPR119) was 7.47. In addition, the “reduction of glucose excursion compared to vehicle (glucose area under the curve)” value in the assay with male ZDF rats was determined as 75%.
With `CC(C)OC(=O)N1CCC(ON=C2CCN(c3cc(F)c([C@@H](C)N)cc3F)CC2)CC1` [Example 8-1, 4-{1-[4-((R)-1-Amino-ethyl)-2,5-difluoro-phenyl]-piperidin-4-ylideneaminooxy}-piperidine-1-carboxylic acid isopropyl ester], at human GPR119 receptor (setting [1]), the negative logarithm of the EC50 (pEC50) was 6.27. Besides, the “reduction of glucose excursion compared to vehicle (glucose area under the curve)” value in the assay on male ZDF rats turned out to be 70%.
Take `CC(C)OC(=O)N1CCC(ON=C2CCN(c3cc(F)c(C(=O)NCC(=O)O)cc3F)CC2)CC1` [Example 30-1, 4-{1-[4-(Carboxymethyl-carbamoyl)-2,5-difluoro-phenyl]-piperidin-4-ylideneaminooxy}-piperidine-1-carboxylic acid isopropyl ester]: the pEC50 at human GPR119 receptor (setting [1]) was 5.95.
Turning to `CC(C)OC(=O)N1CCC(ON=C2CCN(c3cc(F)c(CC(=O)NCC4CCCNC4)cc3F)CC2)CC1` (stereo not drawn) [Example 75-23], the pEC50 on human GPR119 receptor (setting [2]) was 6.42.
With `CCc1cnc(N2CCC(ON=C3CCN(c4cc(F)c(CC(=O)N5CCC(CN(C)C)CC5)cc4F)CC3)CC2)nc1` [Example 77-14], the pEC50 on human GPR119 receptor (the 44th table, compounds 77-1 to 77-14, read-out: EC50) was 8.22.
Take `CNC(=O)c1cc(F)c(N2CCC(=NOC3CCN(Cc4ccc(-c5cncnc5)cc4)CC3)CC2)cc1F` [Example 66-69]: the pEC50 at human GPR119 receptor (the 38th table, compounds 66-65 to 66-72, read-out: EC50) was 5.65.
`Cc1nnnn1Cc1cnc(N2CCC(=NOC3CCN(C(=O)OC(C)C)CC3)CC2)c(F)c1` [Example 54-6]: the pEC50 on human GPR119 receptor (the 30th table, read-out: EC50) was 5.94.
Turning to `CS(=O)(=O)c1ccc(N2CCC(=NOC3CCN(C(=O)N4CCCCC4)CC3)CC2)c(F)c1` [Example 73-1, 1-(2-FLUORO-4-METHANESULFONYL-PHENYL)-PIPERIDIN-4-ONE O-[1-(PIPERIDINE-1-CARBONYL)-PIPERIDIN-4-YL]-OXIME], the pEC50 on human GPR119 receptor (setting [3]) was 6.37.
On to `CN1CCCC1CCOC(=O)N1CCC(ON=C2CCN(c3ccc(S(C)(=O)=O)cc3F)CC2)CC1` (stereo not drawn) [Example 64-27], for which the pEC50 on human GPR119 receptor (the 33rd table, read-out: EC50) was less than 5.00.
Regarding `CS(=O)(=O)c1ccc(N2CCC(=NOC3CCN(c4nccc(C(F)(F)F)n4)CC3)CC2)c(F)c1` [Example 63-11], the pEC50 on human GPR119 receptor (the 32nd table, read-out: EC50) is less than 5.00.
On to `CC(C)OC(=O)N1CCC(ON=C2CCN(c3ncc4c(n3)CCN(S(C)(=O)=O)C4)CC2)CC1` [Example 59b, 4-[1-(6-Methanesulfonyl-5,6,7,8-tetrahydro-pyrido[4,3-d]pyrimidin-2-yl)-piperidin-4-ylideneaminooxy]-piperidine-1-carboxylic acid isopropyl ester], for which the pEC50 at human GPR119 receptor (setting [1]) was 6.48.
With `CS(=O)(=O)c1ccc(N2CCC(=NOC3CCN(Cc4ccc(Br)cc4F)CC3)CC2)c(F)c1` [Example 66-44], the pEC50 on human GPR119 receptor (the 36th table, compounds 66-1 to 66-51, read-out: EC50) was 6.12.
Regarding `CS(=O)(=O)c1ccc(N2CCC(=NOC3CCN(c4nccc(Cl)n4)CC3)CC2)c(F)c1` [Example 63-6], at human GPR119 receptor (the 32nd table, read-out: EC50), the pEC50 is 5.87.
For the compound `CS(=O)(=O)c1ccc(N2CCC(=NOC3CCN(C(=O)N4CCCC4)CC3)CC2)c(F)c1` [Example 73-2], the pEC50 at human GPR119 receptor (setting [3]) was 5.82.
Regarding `CC(C)OC(=O)N1CCC(ON=C2CCN(c3cc(F)c(CC(=O)N4CCNCC4)cc3F)CC2)CC1` [Example 75-25], at human GPR119 receptor (setting [2]), the pEC50 was 7.04.
In the case of `CC(C)OC(=O)N1CCC(ON=C2CCN(c3cc(F)c(CN4CCOC(CC(=O)O)C4)cc3F)CC2)CC1` (stereo not drawn) [Example 5-2], the pEC50 at human GPR119 receptor (setting [1]) was 5.23.
